The nature of experiment [1]: Induction of activation of human CD56+ CD3- NK cells co-cultured with human K562 cells in 1:1 ratio and assessed as increase in MIP1beta secretion at 1 uM measured by ELISA assay. In kind it is functional, Natural killer cell. A general note: An ELISA detects its analyte on a solid surface through an enzyme-linked reagent.
Experiment [2] is described as follows: Induction of activation of human CD56+ CD3- NK cells co-cultured with human K562 cells in 5:1 ratio and assessed as increase in MIP1beta secretion at 10 uM measured by ELISA assay. Type of experiment: functional, Natural killer cell.
Experiment [3] is described as follows: Induction of activation of human CD56+ CD3- NK cells co-cultured with human K562 cells in 1:1 ratio and assessed as increase in IFN-gamma secretion at 10 uM measured by ELISA assay. Type of experiment: functional, Natural killer cell.
Experiment [4] is described as follows: Induction of activation of human CD56+ CD3- NK cells co-cultured with human K562 cells in 1:1 ratio and assessed as increase in MIP1beta secretion at 10 uM measured by ELISA assay. In kind it is functional, Natural killer cell.
Experiment [5] is described as follows: Induction of anti-CD3 antibodies-stimulated human T cell activation at 1 uM assessed fold increase in IL-2 secretion measured by ELISA assay. Also: reference of the scale not given here. In kind it is functional, T cell line.
Experiment [6] in a line: Induction of activation of human CD56+ CD3- NK cells co-cultured with human K562 cells in 5:1 ratio and assessed as increase in TNF-alpha secretion at 1 uM measured by ELISA assay. In kind it is functional, Natural killer cell.
A short description of experiment [7]: Induction of activation of human CD56+ CD3- NK cells co-cultured with human K562 cells in 1:1 ratio and assessed as increase in IFN-gamma secretion at 1 uM measured by ELISA assay. Type of experiment: functional, Natural killer cell.
Experiment [8] in a line: Induction of anti-CD3/CD28 antibodies-stimulated human T cell activation at 4 uM assessed fold increase in IL-2 secretion measured by ELISA assay. Type of experiment: functional, T cell line.
Experiment [9] can be described thus: Induction of activation of human CD56+ CD3- NK cells co-cultured with human K562 cells in 5:1 ratio and assessed as increase in TNF-alpha secretion at 10 uM measured by ELISA assay. Type of experiment: functional, Natural killer cell.
Experiment [10] can be described thus: Induction of anti-CD3/CD28 antibodies-stimulated human T cell activation at 0.3 uM assessed fold increase in CD25 expression measured by ELISA assay. Type of experiment: functional, T cell line.
A short description of experiment [11]: Induction of activation of human CD56+ CD3- NK cells co-cultured with human K562 cells in 5:1 ratio and assessed as increase in IFN-gamma secretion at 10 uM measured by ELISA assay. In kind it is functional, Natural killer cell.
Experiment [12] in a line: Induction of anti-CD3/CD28 antibodies-stimulated human T cell activation at 4 uM assessed fold increase in CD25 expression measured by ELISA assay. In kind it is functional, T cell line.
Experiment [13] in a line: Induction of activation of human CD56+ CD3- NK cells co-cultured with human K562 cells in 1:1 ratio and assessed as increase in TNF-alpha secretion at 1 uM measured by ELISA assay. Type of experiment: functional, Natural killer cell.
The nature of experiment [14]: Induction of activation of human CD56+ CD3- NK cells co-cultured with human K562 cells in 1:1 ratio and assessed as increase in TNF-alpha secretion at 10 uM measured by ELISA assay. In kind it is functional, Natural killer cell.
Experiment [15] in a line: Induction of anti-CD3 antibodies-stimulated human T cell activation at 1 uM assessed fold increase in CD25 expression measured by ELISA assay. Also: reference of the scale not given here. Type of experiment: functional, T cell line.
Experiment [16] is described as follows: Induction of anti-CD3/CD28 antibodies-stimulated human T cell activation at 1 uM assessed fold increase in CD25 expression measured by ELISA assay. Type of experiment: functional, T cell line.
A short description of experiment [17]: Induction of anti-CD3/CD28 antibodies-stimulated human T cell activation at 1 uM assessed fold increase in IL-2 secretion measured by ELISA assay. Type of experiment: functional, T cell line.
Experiment [18] can be described thus: Induction of activation of human CD56+ CD3- NK cells co-cultured with human K562 cells in 5:1 ratio and assessed as increase in MIP1beta secretion at 1 uM measured by ELISA assay. Type of experiment: functional, Natural killer cell.
The target in experiment [19] is T1, E3 ubiquitin-protein ligase CBL-B (Homo sapiens, UniProt Q13191). Description: Binding affinity towards N-terminal biotinylated Avi-tagged human CBL-B (36 to 427 residues) measured by surface plasmon resonance assay. For orientation: SPR reads the build-up and loss of mass on a sensor chip optically.
T1 sequence (Q13191 whole entry, the tested form may be a part): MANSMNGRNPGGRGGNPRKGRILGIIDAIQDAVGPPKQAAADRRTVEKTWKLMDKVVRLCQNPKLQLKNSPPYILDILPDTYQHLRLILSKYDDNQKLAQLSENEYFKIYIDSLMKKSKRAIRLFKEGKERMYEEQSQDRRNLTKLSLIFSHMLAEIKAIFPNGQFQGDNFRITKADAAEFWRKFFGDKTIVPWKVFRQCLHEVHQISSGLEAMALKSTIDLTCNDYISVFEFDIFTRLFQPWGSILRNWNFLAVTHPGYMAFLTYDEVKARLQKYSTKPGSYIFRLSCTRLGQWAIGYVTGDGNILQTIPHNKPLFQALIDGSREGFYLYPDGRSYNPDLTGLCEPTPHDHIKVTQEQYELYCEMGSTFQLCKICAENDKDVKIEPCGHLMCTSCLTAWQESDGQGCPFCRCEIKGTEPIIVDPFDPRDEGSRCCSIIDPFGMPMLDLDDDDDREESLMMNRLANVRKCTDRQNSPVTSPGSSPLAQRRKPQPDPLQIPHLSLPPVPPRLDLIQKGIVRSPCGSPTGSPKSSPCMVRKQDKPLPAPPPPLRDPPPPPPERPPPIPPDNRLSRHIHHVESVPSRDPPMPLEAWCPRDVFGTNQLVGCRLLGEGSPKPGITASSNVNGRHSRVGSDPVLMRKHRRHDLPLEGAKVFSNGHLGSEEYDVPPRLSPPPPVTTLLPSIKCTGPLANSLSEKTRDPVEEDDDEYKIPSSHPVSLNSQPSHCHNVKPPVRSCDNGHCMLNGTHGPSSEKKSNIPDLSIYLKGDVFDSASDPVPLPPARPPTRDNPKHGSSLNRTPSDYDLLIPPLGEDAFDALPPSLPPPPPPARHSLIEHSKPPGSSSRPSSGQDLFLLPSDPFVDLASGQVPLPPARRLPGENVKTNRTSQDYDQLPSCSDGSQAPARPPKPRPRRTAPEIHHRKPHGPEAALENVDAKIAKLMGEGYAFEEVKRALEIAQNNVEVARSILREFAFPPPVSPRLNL
Experiment [20] in a line: Induction of anti-CD3/CD28 antibodies-stimulated human T cell activation at 0.3 uM assessed fold increase in IL-2 secretion measured by ELISA assay. In kind it is functional, T cell line.
For experiment [21], the target named is T1, E3 ubiquitin-protein ligase CBL-B. Nature of the experiment: Inhibition of N-terminal Avi-tagged human CBL-B (36 to 427 residues) incubated with 60 nM Src kinase for 1.5 hrs followed by incubation with fluorescently labeled UbcH5B-Ub for 1 hr and measured by TR-FRET assay. Type of experiment: single protein. (Time-resolved FRET reads energy transfer from a long-lived donor to a nearby acceptor.)

A short description of experiment [22]: Induction of anti-CD3 antibodies-stimulated human T cell activation at 8 uM assessed fold increase in CD25 expression measured by ELISA assay. Also: reference of the scale not given here. In kind it is functional, T cell line.
The nature of experiment [23]: Induction of activation of human CD56+ CD3- NK cells co-cultured with human K562 cells in 5:1 ratio and assessed as increase in IFN-gamma secretion at 1 uM measured by ELISA assay. In kind it is functional, Natural killer cell.
Experiment [24] can be described thus: Induction of anti-CD3 antibodies-stimulated human T cell activation at 8 uM assessed fold increase in IL-2 secretion measured by ELISA assay. Also: reference of the scale not given here. In kind it is functional, T cell line.
Experiment [25] is described as follows: Induction of anti-CD3 antibodies-stimulated human CD8+ T cell activation in immunocompetent mouse assessed fold increase in CD25 expression at 90 mg/kg, po administered twice a day. Also: reference of the scale not given here. In kind it is functional.
Experiment [26] can be described thus: Induction of anti-CD3 antibodies-stimulated human CD4+ T cell activation in immunocompetent mouse assessed fold increase in CD25 expression at 90 mg/kg, po administered twice a day. Also: reference of the scale not given here. Type of experiment: functional.
Experiment [27] in a line: Induction of anti-CD3 antibodies-stimulated human CD8+ T cell activation in immunocompetent mouse assessed fold increase in CD25 expression at 180 mg/kg, po administered twice a day. Also: reference of the scale not given here. Type of experiment: functional.
Experiment [28] is described as follows: Induction of anti-CD3 antibodies-stimulated human CD8+ T cell activation in immunocompetent mouse assessed fold increase in CD25 expression at 135 mg/kg, po administered twice a day. Also: reference of the scale not given here. Type of experiment: functional.
Experiment [29] in a line: Induction of anti-CD3 antibodies-stimulated human CD4+ T cell activation in immunocompetent mouse assessed fold increase in CD25 expression at 180 mg/kg, po administered twice a day. Also: reference of the scale not given here. Type of experiment: functional.
Experiment [30] is described as follows: Induction of anti-CD3 antibodies-stimulated human CD8+ T cell activation in immunocompetent mouse assessed fold increase in CD25 expression at 90 mg/kg, ip administered thrice a day. Also: reference of the scale not given here. Type of experiment: functional.
Experiment [31] in a line: Induction of anti-CD3 antibodies-stimulated human CD4+ T cell activation in immunocompetent mouse assessed fold increase in CD25 expression at 135 mg/kg, po administered twice a day. Also: reference of the scale not given here. In kind it is functional.
In experiment [32] the target is T1, E3 ubiquitin-protein ligase CBL-B. Description: Inhibition of N-terminal Avi-tagged human CBL-B (36 to 427 residues) incubated with 30 nM Src kinase for 1.5 hrs followed by incubation with fluorescently labeled UbcH5B-Ub for 1 hr and measured by TR-FRET assay.
The nature of experiment [33]: Induction of anti-CD3 antibodies-stimulated human CD8+ T cell activation in immunocompetent mouse assessed fold increase in CD25 expression at 45 mg/kg, po administered twice a day. Also: reference of the scale not given here. In kind it is functional.

pIC50, pKd: −log10 of the molar value. Some results are limits rather than exact numbers.

As for `C[C@H](Cc1nncn1C)c1cccc(NC(=O)c2cc(C(=O)N3CC[C@H](O)C3)cc(C(F)(F)F)n2)c1`, the “fold change (FC)” value in experiment [1] is 1.01; in experiment [2] it was 2.01; in [3], 2.01; in [4], 2.01; in experiment [5], “>=0.201”; in [6] it was 1.01. Also, the “fold change (FC)” value in [7] is 1.01; in experiment [8] it was “>=7.5”; in [9], 2.01; in experiment [10] it was 1.31; in experiment [11], 2.01; in experiment [12] it was “>=1.76”. The “fold change (FC)” value in [13] is reported as 1.01; in [14] it was 2.01; in experiment [15], “>=1.001”; in [16], 1.51; in experiment [17] it was “>=7.5”; in [18], 1.01. Further, the “fold change (FC)” value is 2.51 in experiment [20], “>=1.001” in [22], 1.01 in experiment [23] and “>=0.201” in [24]. For the same molecule, the negative logarithm of the Kd (pKd) (as a rule, −log10 of the Kd, conventionally taken in molar units) in experiment [19] is > 7.00. For the same molecule, the pIC50 (in general, the IC50 on a negative log10 scale, so that one unit is a factor of ten) in experiment [21] is > 7.00.
Take `Cn1cnnc1CC1(c2cccc(N3Cc4c(cc(CN5CCC(C)(F)CC5)cc4C(F)(F)F)C3=O)c2)COC1`: the “fold change (FC)” value is given as 1 in experiment [25]; “>=0.201” in experiment [5]; 1 in experiment [26]; 1.31 in [10]; <1 in experiment [27]; “>=1.001” in [15]. Further, the “fold change (FC)” value in [28] was <1; in experiment [29] it was 1; in experiment [30], 1; in [16], 1.31; in experiment [17], “>=7.5”; in experiment [20] it was “>=7.5”. Also, the “fold change (FC)” value in experiment [31] worked out at 1. Besides, the negative logarithm of the Kd (pKd) in experiment [19] is > 7.00. For the same molecule, the pIC50 in experiment [21] is > 7.00.
Consider `Cn1cnnc1CC1(c2cccc(N3Cc4c(cc(CN5CC[C@H](F)C5)cc4C(F)(F)F)C3=O)c2)COC1`, for which the “fold change (FC)” value in experiment [25] is on record as 1; in [5], “>=0.201”; in experiment [8] it was “>=7.5”; in experiment [26], 1; in experiment [10], 1.31; in [12] it was 1.51. Moreover, the “fold change (FC)” value is recorded as 1 in experiment [27]; “>=1.001” in experiment [15]; 1 in [28]; 1 in [29]; 1 in experiment [30]; 1.51 in [16]. The “fold change (FC)” value in [17] is “>=7.5”; in experiment [20], 5; in [22] it was “>=1.001”; in experiment [31] it was 1; in [24] it was “>=0.201”. The pIC50 in experiment [21] is > 7.00.
Turning to `C[C@@H](Sc1nncn1C)c1cccc(NC(=O)c2ccc3ccccc3n2)c1`, the “fold change (FC)” value in experiment [1] is recorded as 1.01; in [2], “<=1”; in experiment [3], “<=1”; in experiment [4] it was “<=1”; in [6] it was “<=1”; in [7], “<=1”. The “fold change (FC)” value in experiment [9], in experiment [11], in experiment [13], in experiment [14], in experiment [18] and in experiment [23] was “<=1” each time. Also, the pKd in experiment [19] is ≤ 5.52. Moreover, in experiment [32], the pIC50 was < 5.00.
In the case of `Cn1cnnc1CC1(c2cccc(N3Cc4c(cc(CN5CC[C@@H](C#N)C5)cc4C(F)(F)F)C3=O)c2)COC1`, the “fold change (FC)” value in [25] is recorded as <1; in [5] it was 0.101; in experiment [8], “>=7.5”; in experiment [26], <1; in experiment [10], 1.01; in [12], 1.31. Besides, the “fold change (FC)” value in [27] is listed as <1; in experiment [33], <1; in [15], “>=1.001”; in experiment [28] it was <1; in experiment [29], <1; in experiment [30], <1. The “fold change (FC)” value is 1.01 in experiment [16]; “>=7.5” in [17]; 5 in experiment [20]; “>=1.001” in experiment [22]; <1 in experiment [31]; “>=0.201” in experiment [24]. For the same molecule, the pIC50 in experiment [21] is > 7.00.
`Cn1cnnc1C(F)(F)[C@](C)(F)c1cccc(N2Cc3c(cccc3C(F)(F)F)C2=O)c1`: the “fold change (FC)” value was “<=1” in [1]; “<=1” in experiment [2]; 2.01 in experiment [3]; “<=1” in experiment [4]; 0.151 in experiment [5]; “<=1” in experiment [6]. For the same molecule, the “fold change (FC)” value in experiment [7] was 1.01; in [8], 2.51; in experiment [9], “<=1”; in experiment [10], 1.01; in experiment [11], 1.01; in experiment [12], 1.01. Also, the “fold change (FC)” value in [13] is reported as “<=1”; in [14], 1.01; in [15], 0.601; in experiment [16], 1.01; in [17] it was 1.01; in experiment [18], “<=1”. For the same molecule, the “fold change (FC)” value in [20] was 1.01; in experiment [22], “>=1.001”; in [23], “<=1”; in experiment [24], “>=0.201”.
For `C[C@@H](Cc1nncn1C)c1cccc(N2Cc3c(cccc3C(F)(F)F)C2=O)c1`, the “fold change (FC)” value in experiment [25], in [27], in experiment [28], in [29] and in [31] was <1 throughout.

Source of the values: ChEMBL document CHEMBL5050844 (2019).
